Measurements: paper PMC10600247, “Impact of C- and N-terminal protection on the stability, metal chelation and antimicrobial properties of calcitermin” (Scientific Reports, 2023)
Residues, ends and D or L forms follow the SMILES beside them.

What was measured:
[1] = system: C. albicans (ATCC 10231); assay: In vitro antifungal CFU assay; assay type: cell-based, Candida albicans; settings: pH 5.4; for mean CFU number ± S.D.: per 0.1 mL
Description: (§1) All microbes were grown at 37 °C in Tryptic Soy Broth (TSB; Biolife, Milan, Italy) or Tryptic Soy Agar plates (TSA, Biolife, Milan, Italy). Peptides were tested at a final concentration C = 0.128, 0.064, 0.032 mg/mL, in the presence or absence of ZnCl2 or CuCl2, at a M:L molar ratio 0.9:1. Briefly, all the microbes were expanded in TSB at 37 °C under agitation for 12 h and then sub-cultured by 1:10 dilution in TSB under the same conditions until reaching OD600nm = 0.3–0.4, as measured by spectrophotometric reading using a GENESYS 10S UV–Vis spectrophotometer (Thermo Scientific, Milan, Italy), corresponding to 0.9–1.2 × 10^7 colony forming units (CFU) per mL, 1.5–2 × 10^8 CFU/mL and 2.4–3.2 × 10^8 CFU/mL, for C. albicans, S. aureus and E. coli respectively. The cultures were then centrifuged at 4500 rpm for 10 min in a SL 8 centrifuge (TX-150 Rotor) (Thermo Scientific, Milan, Italy), and the cellular pellets were washed with PBS pH 5.4. Pelletized cultures were then suspended in 10 mL of PBS pH 5.4, then the suspensions were diluted to a final concentration of 10^4 CFU/mL. Aliquots of 100 µl (corresponding to 10^3 CFU) were seeded in each well of a 96-wells plate. 3 µl of TSB at pH 5.4 were added to each well to obtain a final 1.5% TSB concentration in the culture medium. Peptides were serially diluted in PBS pH 5.4 to C = 0.257, 0.128, and 0.064 mg/mL. ZnCl2 and CuCl2 solutions were added where requested to obtain a M:L ratio 0.9:1. 100 µl of the prepared peptides ± ZnCl2/CuCl2 solutions were then added to each well, obtaining the final 0.128, 0.064 and 0.032 mg/mL peptide concentrations in a total 0.2 mL volume. PBS alone and PBS + ZnCl2/CuCl2 solutions were included as controls. The plates were incubated at 37 °C on a platform rocker with slow stirring for 3 and 24 h. At the end of the incubation times, 100 µl aliquots were taken from each sample and diluted in PBS pH 5.4 to be seeded on TSA plates. Specifically, aliquots were diluted 1:10 at 3 h, and 1:200, 1:100,000 and 1:10 at 24 h, for C. albicans, E. coli, and S. aureus respectively. After incubation for 24 h at 37 °C, grown CFUs were enumerated. Samples were assayed in triplicate in two independent experiments. Student’s t-test was used for the evaluation of significance in biological tests; a p value ≤ 0.05 was considered significant.

[2] = system: S. aureus (ATCC 25293); assay: In vitro anti-S. aureus CFU assay; assay type: cell-based, Staphylococcus aureus; settings: 3 h, pH 5.4; for mean CFU number ± S.D.: per 0.1 mL
Description: as §1

[3] = in vitro; settings: human, pH 7.4
Description: Each peptide (C = 1·10^–4 M) and metal complex (metal:ligand ratio 1:1) was incubated in a sample containing 1 ml of human plasma (obtained as a pool of 40 individuals from the University Hospital of Ferrara) and 1 ml of ammonium acetate buffer (pH 7.4) at 37 °C. L-phenylalaninol is added as internal standard. At regular time intervals, 200 μl aliquots were taken and enzymatic reaction was blocked by adding 300 μl of HClO4 0.5 M. The sample was then centrifugated for 6 min at 14,000 × g. The supernatant was then filtered and analysed by HPLC. The analytical column was an Agilent Poroshell 120 SB-C18 (4.6 × 100 mm, 2.7 μm, pore size 120 Å). Flow rate = 0.5 ml/min, mobile phase H2O + 0.1% v/v TFA, linear gradient from 0 to 60% of acetonitrile + 0.1% v/v TFA over 30 min for the elution of peptides, temperature 25 °C, detection wavelength 210 nm. […] Informed consent was obtained from all subjects and/or their legal guardian(s) prior to the donation of blood samples. All experimental protocols were approved by the National Research and Research Transversal Processes boards at University of Ferrara. All methods were carried out in accordance with relevant guidelines and regulations.

[4] = peptide 0.032 mg/mL + CuCl2 (0.9:1), 3 h
[5] = peptide 0.032 mg/mL + ZnCl2 (0.9:1), 3 h
[6] = peptide 0.032 mg/mL + ZnCl2 (0.9:1), 24 h
[7] = peptide 0.064 mg/mL + CuCl2 (0.9:1), 3 h
[8] = peptide 0.064 mg/mL + ZnCl2 (0.9:1), 3 h
[9] = peptide 0.128 mg/mL + CuCl2 (0.9:1), 3 h
[10] = peptide 0.128 mg/mL + ZnCl2 (0.9:1), 3 h
[11] = peptide 0.032 mg/mL + CuCl2 (0.9:1)
[12] = peptide 0.032 mg/mL + ZnCl2 (0.9:1)
[13] = peptide 0.064 mg/mL + CuCl2 (0.9:1)
[14] = peptide 0.064 mg/mL + ZnCl2 (0.9:1)
[15] = peptide 0.128 mg/mL + CuCl2 (0.9:1)

CC[C@H](C)[C@H](NC(=O)[C@H](C)NC(=O)[C@@H](NC(C)=O)C(C)C)C(=O)N[C@@H](C)C(=O)N[C@@H](CC(C)C)C(=O)N[C@@H](CCCCN)C(=O)N[C@@H](C)C(=O)N[C@@H](C)C(=O)N[C@@H](Cc1c[nH]cn1)C(=O)N[C@@H](Cc1ccc(O)cc1)C(=O)N[C@@H](Cc1c[nH]cn1)C(=O)N[C@H](C(=O)N[C@@H](Cc1c[nH]cn1)C(=O)N[C@@H](CCCCN)C(=O)N[C@@H](CCC(=O)O)C(=O)O)[C@@H](C)O [L1, Ac-VAIALKAAHYHTHKE] (Ac-VAIALKAAHYHTHKE-OH)
CFU decrease/increase with respect to untreated controls [1, 4]: -27.3%
mean CFU number ± S.D. [1, 4]: 40 ± 28 CFU
mean CFU number ± S.D. ([1]; peptide 0.032 mg/mL + CuCl2 (0.9:1), 24 h): 1,908 ± 160 CFU
CFU decrease/increase with respect to untreated controls [1, 5]: +16%
mean CFU number ± S.D. [1, 5]: 67 ± 4 CFU
CFU decrease/increase with respect to untreated controls [1, 6]: -2%
mean CFU number ± S.D. [1, 6]: 2,230 ± 326 CFU
CFU decrease/increase with respect to untreated controls [1, 7]: -27.3%
mean CFU number ± S.D. [1, 7]: 40 ± 24 CFU
mean CFU number ± S.D. ([1]; peptide 0.064 mg/mL + CuCl2 (0.9:1), 24 h): 1,576 ± 112 CFU
CFU decrease/increase with respect to untreated controls [1, 8]: +60%
mean CFU number ± S.D. [1, 8]: 88 ± 7 CFU
mean CFU number ± S.D. ([1]; peptide 0.064 mg/mL + ZnCl2 (0.9:1), 24 h): 1,619 ± 165 CFU
CFU decrease/increase with respect to untreated controls [1, 9]: -27.3%
mean CFU number ± S.D. [1, 9]: 40 ± 11 CFU
mean CFU number ± S.D. ([1]; peptide 0.128 mg/mL + CuCl2 (0.9:1), 24 h): 1,428 ± 24 CFU
CFU decrease/increase with respect to untreated controls [1, 10]: +31%
mean CFU number ± S.D. [1, 10]: 72 ± 10 CFU
mean CFU number ± S.D. ([1]; peptide 0.128 mg/mL + ZnCl2 (0.9:1), 24 h): 265 ± 108 CFU
mean CFU number ± S.D. ([1]; peptide alone 0.032 mg/mL, 3 h): 40 ± 10 CFU
mean CFU number ± S.D. ([1]; peptide alone 0.032 mg/mL, 24 h): 1,789 ± 225 CFU
CFU decrease/increase with respect to untreated controls ([1]; peptide alone 0.064 mg/mL, 3 h): -1.8%
mean CFU number ± S.D. ([1]; peptide alone 0.064 mg/mL, 3 h): 54 ± 6 CFU
mean CFU number ± S.D. ([1]; peptide alone 0.064 mg/mL, 24 h): 1,807 ± 433 CFU
CFU decrease/increase with respect to untreated controls ([1]; peptide alone 0.128 mg/mL, 3 h): -51%
mean CFU number ± S.D. ([1]; peptide alone 0.128 mg/mL, 3 h): 27 ± 0.6 CFU
mean CFU number ± S.D. ([1]; peptide alone 0.128 mg/mL, 24 h): 1,666 ± 229 CFU
CFU decrease/increase with respect to untreated controls [2, 11]: +20%
mean CFU number ± S.D. [2, 11]: 193 ± 54 CFU
CFU decrease/increase with respect to untreated controls [2, 12]: +14%
mean CFU number ± S.D. [2, 12]: 183 ± 24 CFU
CFU decrease/increase with respect to untreated controls [2, 13]: +37%
mean CFU number ± S.D. [2, 13]: 221 ± 66 CFU
CFU decrease/increase with respect to untreated controls [2, 14]: +19%
mean CFU number ± S.D. [2, 14]: 191 ± 6 CFU
CFU decrease/increase with respect to untreated controls [2, 15]: +3%
mean CFU number ± S.D. [2, 15]: 166 ± 35 CFU
mean CFU number ± S.D. ([2]; peptide 0.128 mg/mL + ZnCl2 (0.9:1)): 87 ± 8 CFU
CFU decrease/increase with respect to untreated controls ([2]; peptide alone 0.032 mg/mL): +34%
mean CFU number ± S.D. ([2]; peptide alone 0.032 mg/mL): 215 ± 68 CFU
CFU decrease/increase with respect to untreated controls ([2]; peptide alone 0.064 mg/mL): -4%
mean CFU number ± S.D. ([2]; peptide alone 0.064 mg/mL): 155 ± 31 CFU
CFU decrease/increase with respect to untreated controls ([2]; peptide alone 0.128 mg/mL): +31%
mean CFU number ± S.D. ([2]; peptide alone 0.128 mg/mL): 211 ± 49 CFU
half-life [3]: 2.25 h
